From patent publication EP3733658B1, “PRENYLATED BENZOPYRANES AS PPAR AGONISTS” (Universitat de València, priority 2017, dated 2019)

How the values were obtained:
hPPARγ = molecular target: T1, hPPARγ (Homo sapiens, UniProt P37231); assay: PPAR/Gal4 chimera luciferase reporter transactivation assay in transiently transfected Cos-7 cells (hPPARγ); type: cell-based
T1 sequence (P37231 238-505): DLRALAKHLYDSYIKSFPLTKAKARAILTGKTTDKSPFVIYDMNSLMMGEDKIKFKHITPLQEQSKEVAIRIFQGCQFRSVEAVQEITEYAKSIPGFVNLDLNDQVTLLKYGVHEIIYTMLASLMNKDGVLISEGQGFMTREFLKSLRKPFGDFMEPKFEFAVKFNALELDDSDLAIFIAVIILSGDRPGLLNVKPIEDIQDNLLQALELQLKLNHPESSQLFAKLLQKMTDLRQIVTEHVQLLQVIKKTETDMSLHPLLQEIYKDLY
Description: (§1) The cells were maintained under standard culture conditions (Dulbecco modified minimum essential Eagle medium, DMEM) supplemented with 10% fetal calf serum (FCS) at 37°C in 5% […] CO2 atmosphere. The medium was changed every 2 days. The Cos-7 cells were seeded in 60 mm discs at a density of 5.5 × 10^5 cells/disc in DMEM supplemented with 10% FCS and incubated at 37°C for 16 h before transfection. The cells were transfected in DMEM using jetPEI, with reporter (pG5-TK-pGL3) and expression (pGal4-h, hPPARα or hPPARγ) plasmids. The expression plasmid pCMV-β-galactosidase was cotransfected as a control for transfection efficacy. After 16 h the transfection was stopped adding DMEM supplemented with 10% FCS, and the cells were trypsinised and seeded in 96-well plates and incubated for 6 h in DMEM containing 10% FCS. Subsequently, the cells were incubated for 24 h in DMEM containing 0.2% FCS and increasing concentrations of the compounds or the vehicle (DMSO, maximum concentration 0.1%) were tested. Finally, the cells were washed once with PBS cooled on ice, lysed and the luciferase and β-galactosidase assays were performed.
(§2) To evaluate the compounds for PPAR transcriptional activity, the tests were conducted in a PPAR/Gal4 chimera of a human luciferase reporter gene to determine the maximum transactivation response of each compound.

[1] = system: mononuclear cell adhesion to HUVEC induced by TNFα; assay: Parallel flow chamber: mononuclear cell adhesion to TNFα-stimulated HUVEC; type: cell-based, human
Description: The parallel flow camera technique was used, which allows viewing cell adhesion under dynamic physiological flow conditions.
In the execution of this study, neutrophils and mononuclear cells were perfused through monolayers of HUVEC previously stimulated, or not, with TNFα (20 ng/mL) for 24 h. For this purpose, the neutrophils and human mononuclear cells were obtained in suspension from healthy volunteers by the Ficoll-Hypaque method, centrifuging by density gradient. Freshly isolated cells (1 × 10^6/mL) were perfused through the monolayer of endothelial cells (HUVEC) stimulated, or not, with TNFα for 24 h. In all the experiments the interactions of the leukocytes were determined after being perfused for 5 min at 0.5 dyne/cm^2. The HUVEC plates were placed in the flow chamber (GlycoTech, Gaithersburg, MD) and a camera was coupled to a phase-contrast inverted microscope (Axio Observer A1 Carl Zeiss microscope, Thornwood, NY) to view cell adhesion (20x lens and 10x eyepiece). In addition, the images were recorded on video for subsequent analysis.

VCAM-1 = assay: Flow cytometry of TNFα-induced VCAM-1 expression in HUVEC; type: cell-based, human; conditions: TNFα 20 ng/mL 24 h
Description: (§3) The cells were collected from the flasks using accutase (StemPro® Accutase® Cell Dissociation Reagent, ThermoFischer Scientific, Waltham, MA).
(§4) Then they were washed and incubated for 1 h with a APC-conjugated mAb antibody against human VCAM-1 (100 µg/mL; clone STA, BioLegend, San Diego, CA), a FITC- conjugated mAb against human ICAM-1 (400 µg/mL; clone HA58, BioLegend, San Diego, CA), a PE-conjugated mAb against human CX3CL1 (1.25 µg/mL; clone 51637, R&D Systems, Minneapolis, MN) or with a APC-conjugated mAb antibody against human CXCL16 (clone 256213, R&D Systems, Abingdon, UK), all at a dilution of 1:25 in 3% BSA/PBS. The samples were analyzed using a BD FACSVerse Flow Cytometer (BD Biosciences, San Jose, CA).

CX3CL1 = assay: Flow cytometry of TNFα-induced CX3CL1 (fractalkine) expression in HUVEC; type: cell-based
Description: as §3, §4

ICAM-1 = assay: Flow cytometry of TNFα-induced ICAM-1 expression in HUVEC; type: cell-based, human; conditions: TNFα 20 ng/mL 24 h
Description: as §3, §4

hPPARα = molecular target: T2, hPPARα (Homo sapiens, UniProt Q07869); assay: PPAR/Gal4 chimera luciferase reporter transactivation assay in transiently transfected Cos-7 cells (hPPARα); type: cell-based
T2 sequence (Q07869 167-468): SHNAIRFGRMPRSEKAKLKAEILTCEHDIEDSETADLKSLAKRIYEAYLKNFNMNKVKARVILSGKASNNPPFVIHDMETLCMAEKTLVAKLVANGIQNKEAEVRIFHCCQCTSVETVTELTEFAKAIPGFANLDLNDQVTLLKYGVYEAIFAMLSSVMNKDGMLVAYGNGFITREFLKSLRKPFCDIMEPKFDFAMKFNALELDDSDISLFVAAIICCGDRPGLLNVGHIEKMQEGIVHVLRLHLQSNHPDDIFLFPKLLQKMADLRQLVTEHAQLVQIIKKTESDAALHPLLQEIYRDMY
Description: as §1, §2

NF-κB (p65) = assay: Flow cytometry of TNFα-induced p65 (NF-κB) phosphorylation in HUVEC; type: cell-based, human; conditions: TNFα 20 ng/mL 1 h
Description: (§5) HUVEC were previously incubated for 24 h with compound 1 (10 µM), for use according to the present invention, or with compound 9 (3 µM), of the invention, and stimulated for 1 h with TNFα (20 ng/mL). The endothelial cells were fixed with BD Cytofix Fixation Buffer (BD Biosciences, San Jose, CA) and permeabilized with BD Sol Perm III solution (BD Biosciences, San Jose, CA) and sequentially stained with a 1:10 dilution of a PE-conjugated mAb antibody against human p65 (pS529, clone K10-895.12.50; BD Biosciences, San Jose, CA) and a 1:10 dilution of Alexa Fluor-conjugated mAb antibody against human p38 MAPK ([…], clone 36/p38; BD Biosciences, San Jose, CA). The cells were analyzed with a BD FACSVerse flow cytometer (BD Biosciences, San Jose, CA).

p38 MAPK = assay: Flow cytometry of TNFα-induced p38 MAPK phosphorylation in HUVEC; type: cell-based, human; conditions: TNFα 20 ng/mL 1 h
Description: as §5

[2] = ratio of IC50, mononuclear cell adhesion

| Structure (SMILES) | hPPARγ Efficacy (%) (hPPARγ; maximum activity as percentage of the maximum activity of rosiglitazone) | EC50 (hPPARγ; read-out: hPPARγ EC50, Cos-7 cells, 24 h, tested 0.001 to 10 µM) [nM] | potency times greater than polycerasoidol [1, 2] | potency times greater than rosiglitazone [1, 2] | expression of VCAM-1 induced by TNFα (VCAM-1; 3 µM) | expression of CX3CL1 induced by TNFα (CX3CL1; 3 µM, TNFα 20 ng/mL 24 h) | expression of ICAM-1 induced by TNFα (ICAM-1; 3 µM) | hPPARα Efficacy (%) (hPPARα; maximum activity as percentage of the maximum activity of WY-14643) | EC50 (hPPARα; read-out: hPPARα EC50, Cos-7 cells, 24 h, tested 0.001 to 10 µM) [nM] | activation of NF-κB induced by TNFα (NF-κB (p65); 3 µM) | decrease of the activation of p38 MAPK (p38 MAPK; 3 µM) [%] | Emax (hPPARγ; COS-7, read-out: hPPARγ Efficacy (%)) [%] | IC50 ([1]; Homo sapiens, HUVEC, pretreatment 20 h, TNFα 20 ng/mL 24 h, perfusion 5 min at 0.5 dyn/cm2, read-out: IC50 adhesion of HUVEC-mononuclear cells) [nM] | times less potent than rosiglitazone [1, 2] | inhibition of VCAM-1 expression induced by TNFα (VCAM-1; 10 µM, 20 h pretreatment) [%] | reduced the expression of fractalkine (CX3CL1) (CX3CL1; 10 µM, TNFα 24 h) [%] | inhibition of ICAM-1 expression induced by TNFα (ICAM-1; 10 µM, 20 h pretreatment) [%] | Emax (hPPARα; COS-7, read-out: hPPARα Efficacy (%)) [%] | activation of NF-κB induced by TNFα (NF-κB (p65); 10 µM) | decrease of the activation of p38 MAPK (p38 MAPK; 10 µM) [%] |
| --- | --- | --- | --- | --- | --- | --- | --- | --- | --- | --- | --- | --- | --- | --- | --- | --- | --- | --- | --- | --- |
| CCOC(=O)CCC(C)=CCCC1(C)CCc2cc(OCc3ccc(F)cc3)ccc2O1 (centres unmarked) [Compound 9] | 57 | 400 | ~16 | approximately 3.6 | significant decrease | significant decrease | but not ICAM-1 | 251 | 300 | inhibit significantly | 71.9 |  |  |  |  |  |  |  |  |  |
| C/C(=C\CCC1(C)CCc2cc(O)cc(C)c2O1)CC/C=C(\C)C(=O)O (centres unmarked) [Polycerasoidol, 1, polycerasoidol] |  |  |  |  |  |  |  |  |  |  |  | 95 | 4900 | 5 | 87.8 | 77.6 | 23.8 | 107 | inhibit significantly | 63.4 |
